In patent US9789200B2, “Therapeutic use of new pharmaceutical preparations containing antitumoral drugs bound to hyaluronic acid in the treatment of neoplasias” (FIDIA FARMACEUTICI S.P.A., priority 2008, dated 2017):
In brackets after ≈: the same amount, converted by molar mass.

What was measured:
[1] = tested on: DHD/K12/Trb peritoneal carcinomatosis; assay: anti-tumoral effect in vivo, peritoneal carcinomatosis and tumoral ascites induced by DHD/K12/Trb in BDIX rats; set-up: species or system rat; conditions: 40 mg/kg intraperitoneally
Protocol: Animals treated: 36 male rats BDIX 7 weeks' old (about 200 g) were divided according to experimental criteria into the following groups (each group consists of 12 animals):
1. Control Group: inoculum DHD/K12/trb.
2. CPT-11 Group: inoculum DHD/K12/trb+treatment CTP-11 40 mg/Kg intraperitoneally.
After 14 days of stabling, 1×10^6 DHD/K12/trb cells per rat were inoculated intraperitoneally. After 7 days the therapeutic treatment envisaged was initiated, consisting of 4 therapy cycles. The sacrifice of the animals was established 7 days after the last pharmacological treatment. The animals were evaluated once a week for the appearance of possible signs of toxicity, by measuring the body weight, and for the possible appearance of ascites. At the moment of sacrifice an intracardiac sampling was effected in all the animals and the haematological toxicity due to the pharmacological treatment was evaluated. The tumours and ascites were removed and measured. The tissues removed were fixed in formalin for histological and immunohistochemical evaluation.

[2] = tested on: Adenocarcinoma cells of the colon of a rat DHD/K12/Trb; assay: cell vitality, Tripan blue exclusion method; type: cell-based; conditions: 24 h of treatment, ONCOFID-S derivatized at 3.5% w/w (Example 2)
Text: Adenocarcinoma cells of the colon of a rat DHD/K12/Trb expressing the receptor for HA CD44
Adenocarcinoma cells of the colon of a rat DHD/K12/Trb.

[3] = tested on: Adenocarcinoma cells of the colon of a rat DHD/K12/Trb; assay: cytofluorometric analysis of cell phases (DNA content, propidium iodide) and wash out test; type: cell-based; conditions: 0.5 μg/ml, 24 h of treatment; ONCOFID-S 3.5% w/w
Protocol: Adenocarcinoma cells of the colon of a rat DHD/K12/Trb
As described for examples 8 and 9.
The effect of the ONCOFID-S conjugate (at a concentration of 0.5 μg/ml) was determined using an analysis of the cytofluorometric type; after 24 h of pharmacological treatment, the cell phases are identified with FACS-Scan (Becton Dickinson) by cytofluorometric, analysis of the DNA content after colouring the cells with propidium iodide.
In order to evaluate whether the data obtained persist with time, the Wash out test was effected in which, after 48 h of treatment, the culture medium is substituted with fresh medium without treatment: the cell phases were then defined again at the point defined as TO and, after 24 h of culture, T24.

DHD/Trb cells = assay: fluorescence microscopy of intracellular distribution/expression of E-cadherin, β-catenin, APC, GSK-3β and CK20; type: cell-based, rat; conditions: non-conjugated SN38
Text: Due to the importance of the role of regulating the β-catenin in the formation and progression of colon-rectal carcinomas, it was verified whether the treatment with Oncofid-S is capable of modifying the intracellular expression and distribution of the molecules involved in the control process of the above protein, as previously described. The effect of the treatment with ONCOFID-S on the intracellular distribution of E-cadherin, β-catenin, APC e GSK-3β in the DHD/Trb cells was therefore analyzed by means of fluorescence microscopy. Specific antibodies were used for the above proteins, visualizing them with the use of secondary antibodies bound to fluorochromes such as rodamin and fluoroescein.

IC50 [2]	SMILES	animals with bloody ascites [1]	average reduction in the tumoral mass ([1]; vs control)	gap1 and S phases of the cell cycle [3]	modifications relating to cell differentiation (APC/GSK-3β, β-catenin, E-cadherin, CK20) (DHD/Trb cells)
	CCc1c2c(nc3ccc(OC(=O)N4CCC(N5CCCCC5)CC4)cc13)-c1cc3c(c(=O)n1C2)COC(=O)[C@]3(O)CC [CPT-11, Irinotecan]	83%	62%		
1.4 µg/mL (≈ 3.57 µM)	CCc1c2c(nc3ccc(O)cc13)-c1cc3c(c(=O)n1C2)COC(=O)[C@]3(O)CC [SN38]			increases both the first phase and the S phase	not revealed
